Source: patent US20210153773A1, “DEVICE AND METHOD FOR DETECTION AND MONITORING OF COUGH” (priority 2019, published 2021)

Test system: cough reflex
Assay: Citric acid spray tussive challenge (cough provocation)
Conditions: 50 mg/mL in distilled water, perfume sprayer held about 1 foot from the nose, ~0.07 to 0.10 mL per activation, every subject tested (n=10)
Method: When held at about 1 foot in front of the nose and activated, a fine spray of ˜0.07 to 0.10 mL is released per activation.

## O=C(O)CC(O)(CC(=O)O)C(=O)O [citric acid]
  number of coughs provoked by inhaled spray: one to six
